Results published in article PMC5707064, “Proteoglycan-targeting applied to hypoxia-activated prodrug therapy in chondrosarcoma: first proof-of-concept” (Oncotarget, 2017).
Read-outs that look alike come from different tables or passages of the source.

Experiments:
[1] = test system: aggrecan from bovine articular cartilage; test: Surface plasmon resonance (SPR) binding to immobilized aggrecan; conditions: for Binding to aggrecan (sensorgrams): analytes injected at 0.0625-1 mM, 600 seconds; for Kd: steady-state affinity analysis, ligand: immobilized aggrecan, triplicate, read-out: Dissociation constant (KD)
Procedure: SPR assay was carried out on a Biacore T200 instrument (GE Healthcare) with a CM4 sensor chip (GE Healthcare). To immobilize aggrecan from bovine articular cartilage (Sigma-Aldrich), the sensor chip was first activated using a 1:1 mixture of 0.2 M 1-ethyl-3-(3-dimethylaminopropyl)carbodiimide hydrochloride and 0.5 M N-hydroxysuccinimide (amine coupling kit, GE Healthcare) at a flow rate of 5 μL/min for 10 minutes. Aggrecan was then coated on the sensor chip at 400 μg/mL in running buffer HBS-P^+ 1X (0.01 M HEPES, 0.15 M NaCl, 0.05% v/v surfactant p20, pH 7.4) with 6 mM hexadecyltrimethylammoniumbromide (CTAB) at 5 μL/min to a level of ~500 response units. Unoccupied binding sites were blocked using 1 M ethanolamine (pH 8.5) (Amine coupling kit, GE Healthcare) at 5 μL/min during 10 minutes. The studied molecules (analytes) were diluted in running buffer HBS-P^+ 1X before application to the sensor chip at 30 μL/min. Regeneration of the sensor chips was achieved using 2 M NaCl solution during 150 seconds. Dissociation constants (KD) were determined using Biacore T200 Evaluation software with a “steady-state affinity analysis” after injection of five different concentrations of analytes.

[2] = test system: HEMC-SS chondrosarcoma cells (monolayer); test: In vitro proliferation assay (AlamarBlue), HEMC-SS monolayer culture; type: cell-based, human; conditions: for IC50: Homo sapiens; for HCR (hypoxic-cytotoxic ratio) Monolayer: normoxia vs hypoxia IC50
Procedure: Human HEMC-SS chondrosarcoma cell line was obtained from the European Collection of Authenticated Cell Cultures and cultured in DMEM/F12 medium (Life Technologies) supplemented with 10% fetal calf serum (Dutscher) and 4 μg/mL gentamicin.
(§1) After trypsinization, HEMC-SS cells were seeded in 96-well plates at a density of 20.10^3 cells in 150 μL of the corresponding culture medium and allowed to adhere overnight. For 3D cell culture, Day 10 spheroids were used. Increasing drug concentrations diluted in DMSO (maintaining final DMSO concentration at 0.5% (v/v)) were added. After plate incubations for 24 hours in normoxic (21% O2, 5% CO2, 37 °C) or hypoxic (N2, O2 < 0.3%, 37 °C) conditions, the culture media were removed and 2D and 3D cells were washed with PBS and left to grow for 48 hours in normoxic conditions. Viability of cells cultured in monolayer or spheroids was quantified by AlamarBlue assay. Cytotoxic activity was expressed as the drug concentration that inhibited cell growth by 50% (IC50). Experiments were performed in triplicates. Data are represented as means ± SD. Statistical significance was determined using one-way ANOVA followed by Tukey's post-hoc multiple comparisons test. Results were considered significant at p < 0.05.

HEMC-SS spheroids = test: In vitro proliferation assay (AlamarBlue), HEMC-SS Day 10 spheroids; type: cell-based, human; conditions: for IC50: Homo sapiens, 24 hours exposure then 48 hours in normoxia; for HCR (hypoxic-cytotoxic ratio) Spheroids: normoxia vs hypoxia IC50
Procedure: To generate HEMC-SS spheroids, cells were harvested from culture flasks by trypsinization and seeded in 96-well non-adherent plates (Nunc) with 100 μL of 0.5% methylcellulose (Bio-Techne) diluted in the corresponding medium at a density of 1000 cells per well. Cultures were maintained in a 5% CO2 humidified environment at 37°C.
as §1

HEMC-SS xenograft model = test: In vivo antitumor efficacy on HEMC-SS xenograft model; design: species or system SCID mice; conditions: for Antitumor effect (tumor volume vs controls): 6 i.v. injections at 4-day intervals, 8-QA and 8 47.0 μmol/kg, 10-QA 46.7 μmol/kg
Procedure: In vivo studies were carried out on 50 female Severe Combined ImmunoDeficiency (SCID) mice aged 4–5 weeks old (Janvier Labs). All animal studies were carried out in accordance with the directive 2010/63/EU after approval by the institutional review board (C2E2A, authorization #CE85-12).
To obtain in vivo tumors, 10^7 HEMC-SS cells in 100 μL of PBS were injected with 100 μL of Matrigel® (BD Biosiences) subcutaneously into the right flank of the mice.
The antitumor efficiency of 8-QA was first studied respectively to its non-QA equivalent (8) used as negative control for proteoglycan targeting. In a second independent study, we evaluated the antitumor activity of non-hypoxia activated derivative (10-QA) used as negative control of hypoxia activation, respectively to another control group. For both studies, at 21 days post-cell inoculation mice were randomized into three or two groups (10–12 animals per group). Treatment protocol consisted in 6 doses at 4-day intervals injected by i.v route: 8-QA (47.0 μmol/kg) and 10-QA (46.7 μmol/kg)were injected at 50% of Maximum Tolerated Dose (MTD) while non-targeted derivative 8 (47.0 μmol/kg) was injected at equimolar dose of 8-QA. All molecules were diluted in saline with 2% ethanol. Control animals received vehicle according to the same schedule.
Tumor volume (TV) was calculated using the following formula:
TV (mm^3) = [length x (width)^2]/2.
Tumor Growth Inhibition (TGI) was calculated as follows: TGI (%) = [1-(Tn/Cn)] × 100, where Tn is the tumor volume of the treated group at day n and Cn the tumor volume of the control group at day n.
Data are represented as means ± SD. For antitumor efficiency and mouse weight monitoring, statistical significance was determined using two-way ANOVA. For tumor weight, mitosis number and hematological analyses, statistical significance was determined using one-way ANOVA. Both tests were followed by Tukey's post-hoc multiple comparisons test. Results were considered significant at p < 0.05.

HEMC-SS xenograft tumors = test: Characterization of treated tumors (histology, western blot, immunohistochemistry); type: in vivo, SCID mice; conditions: for γH2AX-positive cells in pimonidazole-positive hypoxic tumor areas: immunostaining on consecutive tumor sections
Procedure: The day after the last dose, 50% of animals of each group were euthanized by CO2 inhalation, and tumors were sampled for histology and immunohistochemistry analyses (n≥3 tumors samples per group of treatment).
Approximately 30 μg of proteins from tumors (n = 3 independent tumor samples per group of treatment) recovered one day after last dose were loaded onto 10% acrylamide gels and separated by SDS-PAGE. Proteins were then transferred to nitrocellulose membranes (Millipore) and incubated with specific primary antibodies p53S15 (Cell Signaling), p21 (Santa Cruz), p-Chk1 (S345) (Cell Signaling) or GAPDH (Santa Cruz) used as housekeeping protein. Antibody-antigen interaction was evidenced by chemiluminescence (Amersham) using HRP-conjugated secondary antibodies (Southern Biotech). Signal was detected and quantified using Image Lab software (BioRad). Data are represented as means ± SD. Statistical significance was determined using one-way ANOVA followed by Tukey's post-hoc multiple comparisons test. Results were considered significant at p < 0.05.
For tumors, the exogenous hypoxia marker pimonidazole hydrochloride (Hypoxyprobe™) was i.p.-injected at 60 mg/kg one hour before mice were euthanized. Tumors were removed, fixed in 10% neutral buffered formalin, and embedded in paraffin. For spheroid cultures, pimonidazole was added at a final concentration of 200 μM two hours before fixation and paraffin-embedding.
Five μm-thick sections were cut and adhered to poly-L-Lysine-coated glass microscope slides. After deparaffinization and rehydration, slides were stained by haematoxylin–eosin (H&E) or Alcian blue (pH 1) to visualize aggrecan or used for immunohistochemistry. After antigen retrieval, endogenous peroxidase quench and saturation, slides were incubated with the primary antibody: anti-Ki 67 (Abcam) rabbit polyclonal antibody (1/2000, 11 hours, RT), anti-pimonidazole (Hypoxyprobe™) mouse monoclonal antibody (1/100, 30 minutes, RT) or anti-phospho-histone-H2AX (Merck Millipore) mouse monoclonal antibody (1/2000, 11 hours, RT). HRP-conjugated rabbit anti-mouse IgG1 secondary antibody (Hypoxyprobe, 1/100, 30 minutes, RT) was used to detect pimonidazole adduct and a biotinylated goat anti-mouse IgG1 secondary antibody (Vector Laboratories, 1/500, 1 hour) was used to detect anti-Ki-67 and anti-phospho-histone-H2AX. Biotin was then complexed with streptavidin-coupled HRP (Vector Laboratories, 1/500, 30 minutes). HRP was detected using a DAB ultravision detection system (Thermo Scientific).

[3] = Side-effect evaluation (mouse weight, hematology, articular cartilage); type: in vivo, SCID mice; conditions: compared to controls; for Mouse weight loss during treatment: 6 i.v. injections at 4-day intervals
Procedure: To assess side effects, mouse weight was monitored and pathology analyses on healthy articular cartilage and hematological analyses were carried out at 24 hours after the last injection. Approximately 50 μL of blood, obtained by retro-orbital sampling, were analyzed on a Melet Schloesing MS9-5 Hematology Analyzer (n = 5 blood samples per group of treatment) (Diamond diagnostics).
Mouse paws (n = 5 per group of treatment) were fixed in 10% neutral buffer formalin, decalcified with 4.13% EDTA and 0.2% paraformaldehyde in PBS for 96 hours using KOS microwave tissue processor (Milestone), and embedded in paraffin. Then, 4–5-μm thick sections were stained by Toluidine Blue (pH 2.5) to visualize aggrecan or by Masson trichrome to visualize collagen. All images were captured with NanoZoomer (Hamamatsu).

HEMC-SS cells = test: Cell cycle determination and apoptosis (Annexin V) evaluation by flow cytometry; type: cell-based, human
Procedure: At 24 hours before treatment, 1.10^6 HEMC-SS cells were seeded in 6-well plates (Nunc) at 3 mL/well of corresponding culture media. Cells were treated with 8-QA compound at 25 μM, 50 μM, or 100 μM final concentrations for 24 hours, under either normoxic (21% O2, 5% CO2, 37°C) or hypoxic (N2, O2 < 0.3%, N2, 37°C) conditions. After incubation, the cells were harvested by trypsinization. The cell suspension containing both floating and adherent cells was centrifuged (400 g, 8 min at +4°C) in PBS. Cell cycle analyses were carried out by resuspending cells in 500 μL of ribonuclease 1 (1 mg/mL) added with 500 μL of propidium iodide (1 mg/mL) (Sigma Aldrich), and apoptotic cells were detected using the Annexin V-FITC kit (Miltenyi Biotec). The cell cycle distribution and proportion of apoptotic cells were analyzed by flow cytometrey (LSR II flow cytometer, BD Biosciences). Experiments were performed in triplicates. Data are represented as means ± SD. For cell cycle analyses, statistical significance was determined using two-way ANOVA followed by Tukey's post-hoc multiple comparison test. For Annexin V test, significance was determined using two-way ANOVA followed by Bonferroni's post-hoc multiple comparison test.

[4] = test system: human osteosarcoma Saos-2 cells; test: Cytotoxic activity on osteosarcoma Saos-2 cells; type: cell-based; conditions: hypoxic conditions, unpublished data of the authors
[5] = hypoxia (N2, O2 < 0.3%), 24 hours exposure then 48 hours in normoxia, read-out: IC50 Monolayer Hypoxia
[6] = normoxia (21% O2), 24 hours exposure then 48 hours in normoxia, read-out: IC50 Monolayer Normoxia
[7] = hypoxia (N2, O2 < 0.3%), read-out: IC50 Spheroids Hypoxia
[8] = normoxia (21% O2), read-out: IC50 Spheroids Normoxia
[9] = tumors sampled one day after last injection

SMILES | Binding to aggrecan (sensorgrams) [1] | Kd [1] [µM] | IC50 [2, 5] [µM] | IC50 [2, 6] [µM] | IC50 (HEMC-SS spheroids; [7]) [µM] | IC50 (HEMC-SS spheroids; [8]) [µM] | Antitumor effect (tumor volume vs controls) (HEMC-SS xenograft model) | γH2AX-positive cells in pimonidazole-positive hypoxic tumor areas (HEMC-SS xenograft tumors) | Mouse weight loss during treatment [3] | HCR (hypoxic-cytotoxic ratio) Monolayer [2] | S/M (spheroid/monolayer cytotoxic ratio) Hypoxia (HEMC-SS spheroids) | S/M (spheroid/monolayer cytotoxic ratio) Normoxia (HEMC-SS spheroids) | HCR (hypoxic-cytotoxic ratio) Spheroids (HEMC-SS spheroids) | other results
C[N+](C)(C)CCCNP(=O)(OCc1ccccc1)N(CCCl)CCCl (stereo not shown) [10-QA] | dose-dependent binding | 4100 | > 200 | > 200 | > 200 | > 200 | no antitumor effect | did not cause any γH2AX-positive cells | did not cause any weight loss |  |  |  |  | IC50 ([2]; read-out: IC50 (cytotoxicity in any of the experimental conditions)): > 200 µM
CCCNP(=O)(OCc1cnc([N+](=O)[O-])n1C)N(CCCl)CCCl (stereo not shown) [compound 8] | no affinity |  | 4.3 ± 1.2 | 32.5 ± 4.3 | 5.7 ± 1.2 | 99.4 ± 5.2 | no antitumor efficacy | did not cause any γH2AX-positive cells | did not cause any weight loss | 7.5 | 1.3 | 3.1 | 17.4 | White blood cell count ([3]; 24 hours after the last dose): significant decrease in white blood cell count
Cn1c(COP(=O)(NCCC[N+](C)(C)C)N(CCCl)CCCl)cnc1[N+](=O)[O-] (stereo not shown) [8-QA] | dose-dependent binding | 890 | 4.3 ± 1.2 | 29.3 ± 8 | 31.8 ± 5.5 | 101 ± 32.6 | significant antitumor effect | strong increase of γH2AX-positive cells | did not cause any weight loss | 6.8 | 7.4 | 3.4 | 3.1 | Cell cycle distribution in hypoxia (HEMC-SS cells; hypoxia (N2, O2 < 0.3%), 25, 50, 100 μM for 24 hours): high accumulation of cells in S and SubG0/G1 phases; Annexin V positive cells (cell death vs control) (HEMC-SS cells; hypoxia, 100 μM, 24 hours): 4.1 fold; Cell cycle distribution in normoxia (HEMC-SS cells; normoxia (21% O2), 25, 50, 100 μM for 24 hours): increase in S-phase; IC50 [4]: 132 ± 29 µM; Tumor growth inhibition (TGI) at D41 (HEMC-SS xenograft model; 47 μmol/kg i.v., q4d x 6, day after last injection (D41)): 62.1%; Tumor weight (HEMC-SS xenograft model; one day after the last injection, normalized to control group): significant decrease; Mitotic index in tumor tissues (HEMC-SS xenograft tumors; H&E, tumors sampled at D41, 47.0 μmol/kg i.v. q4d x 6): 9.7 ± 9.0 mitosis per 10 fields; Phosphorylated-p53 (S15) in tumors, western blot (HEMC-SS xenograft tumors; [9]): significant increased of phosphorylated-p53 (S15); p21 in tumors, western blot (HEMC-SS xenograft tumors; [9]): induction of p21; p-CHK1 in treated tumor samples, western blot (HEMC-SS xenograft tumors; [9]): no increase of p-CHK1
